Results as given in US8552035B2, “Phenanthrenone compounds, compositions and methods” (Pfizer Inc., priority 2008, dated 2013).

Tests used:
IFNγ = assay: LPS-induced human whole blood, IFNγ release; format: cell-based; conditions: Homo sapiens, mean of donors
Experimental: (§1) Venous blood from human donors was collected as 10 ml aliquots in tubes containing sodium heparin (BD Vacutainer from Becton Dickinson and Company, Franklin Lakes, N.Y.). Blood was added to sterile polystyrene round bottom 96-well tissue culture plates (Corning Costar) at 180 Blood was placed in a humidified 37 C incubator with 5% CO2 while compounds were prepared (nearly 60 minutes).
(§2) Compounds were prepared from 10 mM stock solutions in dimethylsulfoxide (DMSO, Sigma-Aldrich). Stock compound was diluted in DMSO to give appropriate starting concentration then diluted serially 1/3 in DMSO (i.e. 15 μl compound+30 μl DMSO), followed by diluting each serial dilution 1/167 into vehicle solution (2% DMSO in phosphate buffered saline (Dulbecco's Phosphate Buffered Saline without calcium chloride without magnesium chloride, Invitrogen Corporation, Carlsbad Calif.)). Compound or vehicle was added to blood in 10 μl aliquots as triplicates, omitting the outside wells to minimize possible edge effects. The final highest concentration of each compound in the assay ranged from 3 to 0.3 μM. Final DMSO concentration in the assay was 0.1%. The plate containing the samples was gently vortexed to mix and replaced in the incubator. LPS stock (E. coli serotype 0111:B4, Sigma-Aldrich), stored in aliquots of 100 μg/ml in RPMI at −20° C., was diluted […] in RPMI to make a working stock solution. After 60 minutes of incubation, 10 μl of the prepared LPS working stock was added to the blood to a final concentration of 100 ng/ml. Wells to be used as negative control received RPMI media with no LPS. The plate was again gently vortexed and the plates incubated overnight for 22 hours. Following incubation, the blood was centrifuged at 1500×g for 5 minutes and the plasma removed to either freeze at −20° C. or assay for cytokine release.
(§3) IL-1β, IFNγ and TNFα protein levels were measured using Meso Scale assay kits (Meso Scale Discovery, Gaithersburg, Md., U.S.A.). Reagents were allowed to come to room temperature. Meso Scale plates were blocked with 150 μl of Meso Scale Block B diluent, gently shaking at room temperature for 60 minutes. Plates were washed 3× with wash buffer (PBS, Invitrogen Corporation, with 0.05% Tween-20, Sigma-Aldrich). Calibrators for standard curves were prepared in human plasma/serum assay diluent as a 1/5 serial dilution to achieve final concentrations ranging from 50000 pg/ml to 3.2 pg/ml. Samples were added at 10 to 20 μl/well and calibrators were added at 20 μl/well then incubated at room temperature with gentle shaking for 2 hours. Plates were again washed 3× with wash buffer. Detection antibody was diluted in human plasma/serum antibody diluent to 1 μg/ml and added to the plate at 20 μl/well. Plates were incubated as before for 2 hours and washed again. Read Buffer T (4×) was diluted 1:1 with mqH20 to 2× concentration and 150 μl added to each well. Plates were read on the SECTOR Imager 6000 (Meso Scale Discovery) to generate raw signal values.
(§4) Individual sample signal values were compared to positive and negative controls (vehicle treated blood with LPS and vehicle treated blood without LPS, respectively) to generate % inhibition. Triplicate values were averaged for each donor. The values for three or four donors were averaged and graphed using 4-parameter fit curves in the LabStats plug-in for the Microsoft Excel application.

TNFα = assay: LPS-induced human whole blood, TNFα release; format: cell-based; conditions: Homo sapiens, mean of donors
Experimental: as §1, §2, §3, §4

IL-6 = assay: LPS-induced human whole blood, IL-6 release; format: cell-based; conditions: mean of donors
IL-1β = assay: LPS-induced human whole blood, IL-1β release; format: cell-based; conditions: Homo sapiens, mean of donors
Experimental: as §1, §2, §3, §4

serum insulin = assay: 28-day mouse side-effect model, serum insulin; format: in vivo; conditions: oral gavage 28 days
Experimental: (§5) 10-12 week old female Swiss Webster mice (Taconic, Germantown, N.Y., U.S.A.) weighing 27-29 grams are used in accordance with the guidelines of the Institutional Animal Care and Use Committee and in accordance with NIH guidelines on laboratory animal welfare. Mice are acclimated to the Pfizer animal facility for 3-7 days prior to being placed on study. Prednisolone and DAGR compounds are administered by oral gavage for a total of 28 days. Each treatment group generally contains 8-10 mice. To establish a dosing regimen for the studies, a pilot pharmacodynamic time course experiment is conducted to quantify TNFa repression after a single ED80 dose (determined from the acute LPS endotoxemia mouse model). […] DAGR compounds vary in their required frequency of doses.
(§6) Body weights are measured on the first and last day of each experiment. Blood samples are obtained after ˜3 weeks of dosing for steady-state pharmacokinetic analysis. To assess compound effects on LPS-induced TNF-a, all mice receive an intraperitoneal injection of LPS (Salmonella Typhosa, Sigma, St. Louis, L-7895) 2.5 hr after the last dose on day 28. Mice are sacrificed 90 min. after LPS administration. Serum samples are assayed for osteocalcin and TNFa using the Linco multiplex assay (St. Charles, Mo.) and Luminex 100 (Austin, Tex.). Samples are diluted 1:20 and the assay is run according to manufacturer's instructions. An osteocalcin standard is purchased separately from Biomedical Technologies Incorporated (Stoughton, Mass.). Serum insulin is measured to assess compound effects on insulin resistance. Insulin was measured using the UltraSensitive Mouse EIA kit from Alpco Diagnostics (Salem, N.H.) following the manufacturer's protocol.
(§7) ED50 and ED80 values are obtained for the various parameters using four-parameter logistic fits of data. For each experiment/dose group, outliers are detected by calculating the number of standard deviations each mouse's value was from the mean of their group and then dividing by the standard deviation of the group. The means and standard deviations used in this calculation omitted the value being examined so that, if it were an outlier, it would have no influence. If the value being examined is more than 2.5 standard deviations from the mean, it was not used in the rest of the calculations.
(§8) Percent inhibition values are then calculated for each animal using the means of the vehicle and 10 mpk prednisone control groups. The individual mouse percent inhibition values are then fit to a four-parameter logistic model using the area under curve mean for each group. Since all four parameters are estimated and the lower plateau is not fixed at 0% and the upper plateau was not fixed at 100%, the ED50 and ED80 values are calculated by using an inverse calibration formula for a response equal to 50% or 80%. The designation “nd” means not determined.

osteocalcin = assay: 28-day mouse side-effect model, serum osteocalcin suppression; format: in vivo; conditions: oral gavage 28 days
Experimental: as §5, §6, §7, §8

LPS-induced TNFα = assay: 28-day mouse side-effect model, LPS-induced serum TNFα suppression; format: in vivo; conditions: oral gavage 28 days, LPS challenge
Experimental: as §5, §6, §7, §8

Q: Which results are given for `Cc1ncccc1CNC(=O)c1ccc2c(c1)CC[C@@H]1C[C@@](O)(CCC(F)(F)F)CC[C@@]21Cc1ccccc1` [Comparator A, (4βS,7S,8αR)-4β-benzyl-7-hydroxy-N-((2-methylpyridin-3-yl)methyl)-7-(3,3,3-trifluoropropyl)-4β,5,6,7,8,8α,9,10-octahydrophenanthrene-2-carboxamide]?
A: inhibition at 0.00137174 µM (IFNγ; 1.371742 nM): 18.1%; inhibition at 0.00411523 µM (IFNγ; 4.115226 nM): -1.7%; inhibition at 0.0123457 µM (IFNγ; 12.34568 nM): 0.016%; inhibition at 0.037037 µM (IFNγ; 37.03704 nM): -9.81%; inhibition at 0.111111 µM (IFNγ; 111.1111 nM): 8.74%; inhibition at 0.333333 µM (IFNγ; 333.3333 nM): -6.32%; inhibition at 1 µM (IFNγ; 1000 nM): 16.5%; inhibition at 3 µM (IFNγ; 3000 nM): 28%; inhibition at 0.00137174 µM (TNFα; 1.371742 nM): 18.1%; inhibition at 0.00411523 µM (TNFα; 4.115226 nM): -0.861%; inhibition at 0.0123457 µM (TNFα; 12.34568 nM): 0.0309%; inhibition at 0.037037 µM (TNFα; 37.03704 nM): -4.19%; inhibition at 0.111111 µM (TNFα; 111.1111 nM): -3.82%; inhibition at 0.333333 µM (TNFα; 333.3333 nM): -4.61%; inhibition at 1 µM (TNFα; 1000 nM): -5.44%; inhibition at 3 µM (TNFα; 3000 nM): -3.04%; inhibition at 0.00137174 µM (IL-6; 1.371742 nM): 1.46%; inhibition at 0.00411523 µM (IL-6; 4.115226 nM): -4.34%; inhibition at 0.0123457 µM (IL-6; 12.34568 nM): -1.13%; inhibition at 0.037037 µM (IL-6; 37.03704 nM): -3.52%; inhibition at 0.111111 µM (IL-6; 111.1111 nM): -3.5%; inhibition at 0.333333 µM (IL-6; 333.3333 nM): -2.83%; inhibition at 1 µM (IL-6; 1000 nM): -0.89%; inhibition at 3 µM (IL-6; 3000 nM): -1.97%; inhibition at 0.00137174 µM (IL-1β; 1.371742 nM): 32%; inhibition at 0.00411523 µM (IL-1β; 4.115226 nM): 22%; inhibition at 0.0123457 µM (IL-1β; 12.34568 nM): 22.8%; inhibition at 0.037037 µM (IL-1β; 37.03704 nM): 17.3%; inhibition at 0.111111 µM (IL-1β; 111.1111 nM): 8.6%; inhibition at 0.333333 µM (IL-1β; 333.3333 nM): 12.2%; inhibition at 1 µM (IL-1β; 1000 nM): 15%; inhibition at 3 µM (IL-1β; 3000 nM): 16.4%

Q: For `Cc1nc(Br)ccc1NC(=O)c1ccc2c(c1)CC[C@@H]1C[C@@](O)(c3ccccc3)[C@](C)(O)C[C@@]21Cc1ccccc1` [Comparator B, (4bR,6R,7R,8aR)-4b-benzyl-N-(6-bromo-2-methylpyridin-3-yl)-6,7-dihydroxy-6-methyl-7-phenyl-4b,5,6,7,8,8a,9,10-octahydrophenanthrene-2-carboxamide], which ED50 at 28 days (serum insulin; female, Swiss Webster, read-out: Insulin (ED50 dose)) is on record?
A: 1.04 mg/kg

Q: What about the “Insulin (ED80 dose)” value (serum insulin) of the same compound?
A: 7.58

Q: And the ED50 at 28 days (osteocalcin; female, Swiss Webster, read-out: Osteocalcin Suppression (ED50 dose))?
A: 0.21 mg/kg

Q: And the “Osteocalcin Suppression (ED80 dose)” value (osteocalcin)?
A: 0.97

Q: What about the ED50 (LPS-induced TNFα; 672 h, read-out: TNFα Suppression (ED50 dose)) of the same compound?
A: 0.083 mg/kg

Q: What about the “TNFα Suppression (ED80 dose)” value (LPS-induced TNFα) of the same compound?
A: 0.45
